According to patent US12227522B2, “Synthesis of structural analogs of largazole and associated compounds” (COLORADO STATE UNIVERSITY RESEARCH FOUNDATION, priority 2020, dated 2025):

Key:
Format in all cases: biochemical
[1] = target: HDAC 1 (Homo sapiens, UniProt Q13547); assay: in vitro HDAC inhibition, HDAC isoform 1; settings: Class 1, in vitro; read-out: HDAC inhibition as IC50, HDAC Isoform 1
[2] = target: T1, HDAC 11 (Homo sapiens, UniProt Q96DB2); assay: in vitro HDAC inhibition, HDAC isoform 11; settings: Class 4, in vitro; read-out: HDAC inhibition as IC50, HDAC Isoform 11
T1 sequence (Q96DB2 1-347): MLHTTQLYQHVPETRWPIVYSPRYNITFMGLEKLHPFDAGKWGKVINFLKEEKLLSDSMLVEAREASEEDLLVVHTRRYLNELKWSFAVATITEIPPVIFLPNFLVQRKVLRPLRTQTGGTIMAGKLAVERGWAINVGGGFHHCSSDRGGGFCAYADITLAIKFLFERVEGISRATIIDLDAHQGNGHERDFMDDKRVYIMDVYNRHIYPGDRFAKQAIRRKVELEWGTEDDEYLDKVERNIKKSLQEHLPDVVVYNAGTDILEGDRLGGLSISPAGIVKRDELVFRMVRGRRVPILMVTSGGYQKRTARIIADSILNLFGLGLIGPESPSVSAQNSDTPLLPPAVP

[3] = target: HDAC 5 (Homo sapiens, UniProt Q9UQL6); assay: in vitro HDAC inhibition, HDAC isoform 5; settings: Class 2a, read-out: HDAC inhibition as IC50, HDAC Isoform 5
[4] = target: T2, HDAC 6 (Homo sapiens, UniProt Q9UBN7); assay: in vitro HDAC inhibition, HDAC isoform 6; settings: Class 2b, read-out: HDAC inhibition as IC50, HDAC Isoform 6
T2 sequence (Q9UBN7 1-1215): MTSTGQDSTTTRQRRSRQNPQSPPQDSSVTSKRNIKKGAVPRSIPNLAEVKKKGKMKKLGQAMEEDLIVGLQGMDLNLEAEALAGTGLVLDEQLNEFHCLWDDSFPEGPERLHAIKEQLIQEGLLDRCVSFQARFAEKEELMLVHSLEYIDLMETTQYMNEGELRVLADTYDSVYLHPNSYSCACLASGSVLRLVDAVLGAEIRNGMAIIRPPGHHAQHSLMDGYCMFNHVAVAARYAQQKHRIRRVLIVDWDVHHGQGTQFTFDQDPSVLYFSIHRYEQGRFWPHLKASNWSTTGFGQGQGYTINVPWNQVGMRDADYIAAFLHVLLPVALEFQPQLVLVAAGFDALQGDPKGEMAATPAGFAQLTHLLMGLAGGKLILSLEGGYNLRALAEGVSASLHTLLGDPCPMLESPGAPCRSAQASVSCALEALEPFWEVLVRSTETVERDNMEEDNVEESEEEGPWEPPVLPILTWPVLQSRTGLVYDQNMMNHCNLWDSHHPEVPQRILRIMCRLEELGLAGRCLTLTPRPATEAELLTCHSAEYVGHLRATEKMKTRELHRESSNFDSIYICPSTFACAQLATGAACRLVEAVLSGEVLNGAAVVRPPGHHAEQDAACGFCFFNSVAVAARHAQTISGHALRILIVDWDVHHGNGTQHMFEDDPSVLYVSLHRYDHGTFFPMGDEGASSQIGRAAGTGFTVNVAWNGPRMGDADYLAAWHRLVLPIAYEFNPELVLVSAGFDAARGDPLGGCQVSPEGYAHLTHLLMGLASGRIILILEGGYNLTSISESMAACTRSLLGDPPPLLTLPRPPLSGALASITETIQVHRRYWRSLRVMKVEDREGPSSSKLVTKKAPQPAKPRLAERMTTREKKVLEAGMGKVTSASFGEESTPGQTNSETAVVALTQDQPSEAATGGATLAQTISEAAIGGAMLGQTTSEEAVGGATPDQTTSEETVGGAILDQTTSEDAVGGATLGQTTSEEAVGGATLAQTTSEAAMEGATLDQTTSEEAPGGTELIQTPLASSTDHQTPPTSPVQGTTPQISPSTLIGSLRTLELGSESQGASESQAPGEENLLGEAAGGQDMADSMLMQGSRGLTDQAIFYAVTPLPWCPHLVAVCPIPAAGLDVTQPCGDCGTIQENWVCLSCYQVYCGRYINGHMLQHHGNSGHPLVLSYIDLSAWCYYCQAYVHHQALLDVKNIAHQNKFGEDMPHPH

[5] = target: HDAC 2 (Homo sapiens, UniProt Q92769); assay: in vitro HDAC inhibition, HDAC isoform 2; settings: Class 1, in vitro; read-out: HDAC inhibition as IC50, HDAC Isoform 2
[6] = target: HDAC 3 (Homo sapiens, UniProt O15379); assay: in vitro HDAC inhibition, HDAC isoform 3; settings: Class 1, in vitro; read-out: HDAC inhibition as IC50, HDAC Isoform 3
[7] = target: T3, HDAC 8 (Homo sapiens, UniProt Q9BY41); assay: in vitro HDAC inhibition, HDAC isoform 8; settings: Class 1, in vitro; read-out: HDAC inhibition as IC50, HDAC Isoform 8
T3 sequence (Q9BY41 1-377): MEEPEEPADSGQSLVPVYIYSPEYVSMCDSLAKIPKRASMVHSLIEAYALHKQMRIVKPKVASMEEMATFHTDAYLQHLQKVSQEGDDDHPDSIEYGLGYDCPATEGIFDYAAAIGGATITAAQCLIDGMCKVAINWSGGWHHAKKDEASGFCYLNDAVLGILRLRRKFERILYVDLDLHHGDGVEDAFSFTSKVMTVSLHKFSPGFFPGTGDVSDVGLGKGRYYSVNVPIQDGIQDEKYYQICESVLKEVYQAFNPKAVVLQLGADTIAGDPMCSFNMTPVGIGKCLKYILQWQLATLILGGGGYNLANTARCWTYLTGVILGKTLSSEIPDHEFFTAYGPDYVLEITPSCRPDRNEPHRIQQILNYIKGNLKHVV

[8] = target: T4, HDAC 7 (Homo sapiens, UniProt Q8WUI4); assay: in vitro HDAC inhibition, HDAC isoform 7; settings: Class 2a, read-out: HDAC inhibition as IC50, HDAC Isoform 7
T4 sequence (Q8WUI4 1-952): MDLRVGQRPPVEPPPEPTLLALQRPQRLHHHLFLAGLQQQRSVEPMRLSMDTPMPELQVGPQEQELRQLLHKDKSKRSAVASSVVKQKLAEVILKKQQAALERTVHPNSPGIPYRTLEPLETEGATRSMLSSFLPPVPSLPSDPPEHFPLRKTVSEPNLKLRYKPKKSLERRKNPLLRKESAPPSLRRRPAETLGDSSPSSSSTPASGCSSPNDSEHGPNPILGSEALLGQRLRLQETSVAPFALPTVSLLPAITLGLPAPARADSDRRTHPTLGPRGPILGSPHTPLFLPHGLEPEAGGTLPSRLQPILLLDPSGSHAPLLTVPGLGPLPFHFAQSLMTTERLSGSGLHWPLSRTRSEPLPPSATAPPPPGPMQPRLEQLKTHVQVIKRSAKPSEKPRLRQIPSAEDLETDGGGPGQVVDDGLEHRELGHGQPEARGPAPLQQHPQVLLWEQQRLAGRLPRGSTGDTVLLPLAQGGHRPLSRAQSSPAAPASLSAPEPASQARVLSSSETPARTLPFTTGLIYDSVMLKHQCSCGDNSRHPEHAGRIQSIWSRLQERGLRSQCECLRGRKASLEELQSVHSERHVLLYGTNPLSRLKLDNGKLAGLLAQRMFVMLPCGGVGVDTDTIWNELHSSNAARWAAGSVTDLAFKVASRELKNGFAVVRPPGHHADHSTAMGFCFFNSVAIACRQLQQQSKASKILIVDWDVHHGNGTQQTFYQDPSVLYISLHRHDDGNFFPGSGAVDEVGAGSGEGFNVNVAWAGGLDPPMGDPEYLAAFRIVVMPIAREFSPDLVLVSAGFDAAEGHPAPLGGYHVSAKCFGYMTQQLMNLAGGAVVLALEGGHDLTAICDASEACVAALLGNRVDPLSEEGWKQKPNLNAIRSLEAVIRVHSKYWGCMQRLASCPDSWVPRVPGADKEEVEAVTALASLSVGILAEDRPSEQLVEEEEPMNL

[9] = target: HDAC 9 (Homo sapiens, UniProt Q9UKV0); assay: in vitro HDAC inhibition, HDAC isoform 9; settings: Class 2a, read-out: HDAC inhibition as IC50, HDAC Isoform 9
[10] = target: HDAC 4 (Homo sapiens, UniProt P56524); assay: in vitro HDAC inhibition, HDAC isoform 4; settings: Class 2a, read-out: HDAC inhibition as IC50, HDAC Isoform 4
Sequence of HDAC 4 (P56524 whole entry, canonical isoform): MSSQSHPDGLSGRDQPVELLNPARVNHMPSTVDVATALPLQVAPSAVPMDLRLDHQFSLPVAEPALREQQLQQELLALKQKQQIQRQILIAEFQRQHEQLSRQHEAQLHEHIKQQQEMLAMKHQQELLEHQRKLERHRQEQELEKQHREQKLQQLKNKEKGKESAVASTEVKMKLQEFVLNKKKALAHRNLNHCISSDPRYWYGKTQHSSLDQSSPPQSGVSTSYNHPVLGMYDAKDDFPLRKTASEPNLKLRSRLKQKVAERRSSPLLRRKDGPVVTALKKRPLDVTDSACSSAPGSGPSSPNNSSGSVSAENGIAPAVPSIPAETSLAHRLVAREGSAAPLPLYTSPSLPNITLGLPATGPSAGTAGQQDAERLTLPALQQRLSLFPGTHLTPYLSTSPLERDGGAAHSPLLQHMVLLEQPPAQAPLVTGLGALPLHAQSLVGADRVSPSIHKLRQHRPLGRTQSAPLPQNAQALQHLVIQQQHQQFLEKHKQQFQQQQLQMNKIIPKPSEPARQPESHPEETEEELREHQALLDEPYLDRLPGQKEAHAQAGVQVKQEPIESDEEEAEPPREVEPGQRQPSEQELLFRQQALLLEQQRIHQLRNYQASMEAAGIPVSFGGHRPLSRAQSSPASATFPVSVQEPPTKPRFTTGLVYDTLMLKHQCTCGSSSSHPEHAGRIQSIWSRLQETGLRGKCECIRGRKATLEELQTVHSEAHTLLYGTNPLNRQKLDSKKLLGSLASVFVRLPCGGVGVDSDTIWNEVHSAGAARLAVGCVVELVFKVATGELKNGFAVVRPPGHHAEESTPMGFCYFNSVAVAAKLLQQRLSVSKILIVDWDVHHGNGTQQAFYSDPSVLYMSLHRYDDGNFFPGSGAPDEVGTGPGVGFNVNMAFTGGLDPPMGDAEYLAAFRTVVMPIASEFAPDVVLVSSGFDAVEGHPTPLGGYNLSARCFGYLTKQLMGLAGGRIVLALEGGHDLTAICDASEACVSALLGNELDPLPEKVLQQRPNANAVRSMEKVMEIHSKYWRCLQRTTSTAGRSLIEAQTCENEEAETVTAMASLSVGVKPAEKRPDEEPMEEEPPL

Sequence of HDAC 3 (O15379 whole entry, canonical isoform): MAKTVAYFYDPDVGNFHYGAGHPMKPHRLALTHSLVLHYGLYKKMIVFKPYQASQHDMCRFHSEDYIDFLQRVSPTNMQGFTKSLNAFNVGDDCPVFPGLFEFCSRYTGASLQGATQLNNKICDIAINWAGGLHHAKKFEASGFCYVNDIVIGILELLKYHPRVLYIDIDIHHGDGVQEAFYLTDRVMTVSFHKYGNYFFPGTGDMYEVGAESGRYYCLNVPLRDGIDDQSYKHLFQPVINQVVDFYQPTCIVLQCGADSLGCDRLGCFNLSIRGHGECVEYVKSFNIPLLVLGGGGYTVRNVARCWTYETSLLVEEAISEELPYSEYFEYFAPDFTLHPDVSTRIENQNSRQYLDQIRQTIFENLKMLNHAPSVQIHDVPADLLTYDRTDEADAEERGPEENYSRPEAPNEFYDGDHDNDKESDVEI
Sequence of HDAC 3 (Q9Y618 395-489 partner limits assumed): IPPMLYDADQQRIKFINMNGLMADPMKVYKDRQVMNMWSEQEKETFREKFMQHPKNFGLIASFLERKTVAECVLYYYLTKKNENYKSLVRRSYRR
Sequence of HDAC 5 (Q9UQL6 whole entry, canonical isoform): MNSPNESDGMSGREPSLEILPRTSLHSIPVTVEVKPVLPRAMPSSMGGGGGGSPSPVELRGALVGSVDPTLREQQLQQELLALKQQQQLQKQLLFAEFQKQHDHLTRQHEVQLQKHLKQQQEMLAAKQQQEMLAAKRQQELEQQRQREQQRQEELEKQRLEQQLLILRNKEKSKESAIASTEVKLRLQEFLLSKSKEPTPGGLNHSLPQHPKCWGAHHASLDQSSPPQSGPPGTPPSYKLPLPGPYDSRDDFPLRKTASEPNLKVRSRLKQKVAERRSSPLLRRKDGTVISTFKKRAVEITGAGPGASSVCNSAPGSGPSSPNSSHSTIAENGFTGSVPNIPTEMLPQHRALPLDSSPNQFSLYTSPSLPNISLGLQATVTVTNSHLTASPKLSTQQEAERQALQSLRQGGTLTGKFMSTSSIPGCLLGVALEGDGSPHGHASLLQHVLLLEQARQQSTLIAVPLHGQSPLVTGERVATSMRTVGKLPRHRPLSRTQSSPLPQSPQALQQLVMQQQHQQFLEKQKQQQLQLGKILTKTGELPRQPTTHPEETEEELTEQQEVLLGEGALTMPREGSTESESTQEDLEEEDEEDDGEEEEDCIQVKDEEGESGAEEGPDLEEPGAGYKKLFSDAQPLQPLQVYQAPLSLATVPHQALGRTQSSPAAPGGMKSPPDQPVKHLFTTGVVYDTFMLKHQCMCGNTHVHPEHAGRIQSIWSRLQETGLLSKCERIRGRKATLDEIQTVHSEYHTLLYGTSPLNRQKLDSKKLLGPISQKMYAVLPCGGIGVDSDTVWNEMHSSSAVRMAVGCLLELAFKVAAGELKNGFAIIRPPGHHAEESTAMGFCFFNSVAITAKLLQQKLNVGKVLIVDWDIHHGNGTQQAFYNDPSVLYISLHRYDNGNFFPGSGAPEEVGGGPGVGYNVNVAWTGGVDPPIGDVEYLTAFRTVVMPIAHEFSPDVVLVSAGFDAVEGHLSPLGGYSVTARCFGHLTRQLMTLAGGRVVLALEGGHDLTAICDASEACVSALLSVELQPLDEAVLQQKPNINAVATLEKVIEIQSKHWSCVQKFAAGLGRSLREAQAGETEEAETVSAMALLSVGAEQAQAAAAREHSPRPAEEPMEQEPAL
Sequence of HDAC 2 (Q92769 whole entry, canonical isoform): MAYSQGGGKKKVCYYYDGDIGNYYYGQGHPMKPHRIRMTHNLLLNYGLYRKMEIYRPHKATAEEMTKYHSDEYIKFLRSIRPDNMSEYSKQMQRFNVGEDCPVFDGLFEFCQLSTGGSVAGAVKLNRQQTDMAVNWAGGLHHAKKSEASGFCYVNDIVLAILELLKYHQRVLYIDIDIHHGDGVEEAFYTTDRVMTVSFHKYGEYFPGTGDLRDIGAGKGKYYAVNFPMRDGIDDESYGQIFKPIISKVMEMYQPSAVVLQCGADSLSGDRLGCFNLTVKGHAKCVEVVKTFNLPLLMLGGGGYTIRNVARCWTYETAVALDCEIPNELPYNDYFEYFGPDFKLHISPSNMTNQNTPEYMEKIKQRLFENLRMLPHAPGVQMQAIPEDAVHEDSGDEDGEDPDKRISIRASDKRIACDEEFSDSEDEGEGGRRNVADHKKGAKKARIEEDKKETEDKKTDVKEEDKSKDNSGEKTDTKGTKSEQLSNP
Sequence of HDAC 1 (Q13547 whole entry, canonical isoform): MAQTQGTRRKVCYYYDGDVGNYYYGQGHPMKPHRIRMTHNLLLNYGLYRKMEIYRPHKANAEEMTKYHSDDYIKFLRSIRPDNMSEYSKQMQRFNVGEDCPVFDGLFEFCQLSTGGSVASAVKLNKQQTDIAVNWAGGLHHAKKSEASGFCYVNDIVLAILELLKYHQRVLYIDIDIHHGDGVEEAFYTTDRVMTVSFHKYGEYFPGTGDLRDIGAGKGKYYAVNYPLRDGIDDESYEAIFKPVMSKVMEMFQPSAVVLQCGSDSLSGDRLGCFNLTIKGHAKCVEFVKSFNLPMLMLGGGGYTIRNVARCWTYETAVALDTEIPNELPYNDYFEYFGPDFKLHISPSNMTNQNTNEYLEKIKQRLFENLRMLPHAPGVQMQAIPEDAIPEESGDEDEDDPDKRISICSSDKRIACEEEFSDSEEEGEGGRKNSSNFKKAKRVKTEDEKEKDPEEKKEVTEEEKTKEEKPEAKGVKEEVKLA
Sequence of HDAC 9 (Q9UKV0 whole entry, canonical isoform): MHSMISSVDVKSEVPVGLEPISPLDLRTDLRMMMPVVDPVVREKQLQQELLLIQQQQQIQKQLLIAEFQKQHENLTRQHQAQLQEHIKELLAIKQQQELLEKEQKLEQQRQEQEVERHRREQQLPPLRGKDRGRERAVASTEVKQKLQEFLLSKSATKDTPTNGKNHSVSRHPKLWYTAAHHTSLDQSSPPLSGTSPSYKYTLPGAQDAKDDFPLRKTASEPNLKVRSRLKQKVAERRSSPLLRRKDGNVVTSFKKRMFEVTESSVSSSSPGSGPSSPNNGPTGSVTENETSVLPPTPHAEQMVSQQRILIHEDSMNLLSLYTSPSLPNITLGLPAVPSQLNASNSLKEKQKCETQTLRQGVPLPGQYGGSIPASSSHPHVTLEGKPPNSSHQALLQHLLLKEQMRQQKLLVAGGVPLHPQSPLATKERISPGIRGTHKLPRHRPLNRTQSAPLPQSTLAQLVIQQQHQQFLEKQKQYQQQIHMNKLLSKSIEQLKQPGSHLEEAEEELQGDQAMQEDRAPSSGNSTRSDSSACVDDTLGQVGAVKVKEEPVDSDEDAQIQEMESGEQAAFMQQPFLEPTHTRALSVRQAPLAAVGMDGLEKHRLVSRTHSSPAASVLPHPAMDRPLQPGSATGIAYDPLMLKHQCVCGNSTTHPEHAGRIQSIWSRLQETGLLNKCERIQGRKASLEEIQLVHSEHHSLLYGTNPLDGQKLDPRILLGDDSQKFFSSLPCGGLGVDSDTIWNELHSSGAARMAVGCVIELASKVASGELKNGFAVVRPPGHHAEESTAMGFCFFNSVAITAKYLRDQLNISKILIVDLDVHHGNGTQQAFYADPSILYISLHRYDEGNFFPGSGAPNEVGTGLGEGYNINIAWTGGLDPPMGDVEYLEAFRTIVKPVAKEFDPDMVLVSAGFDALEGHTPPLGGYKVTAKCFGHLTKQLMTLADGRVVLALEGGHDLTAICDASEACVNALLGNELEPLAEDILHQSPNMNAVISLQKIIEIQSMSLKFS

IC50 [1]: > 10 mM
IC50 [2]: > 10 mM
IC50 [3]: > 10 mM
IC50 [4]: > 10 mM
IC50 [5]: > 10 mM
IC50 [6]: > 10 mM
IC50 [7]: > 10 mM
IC50 [8]: > 10 mM
IC50 [9]: > 10 mM
IC50 [10]: > 10 mM
Structure (SMILES): CC(C)[C@@H]1NC(=O)[C@]2(C)CSC(=N2)c2csc(n2)CNC(=O)C[C@@H](/C=C/CCO)NC1=O
